Where a name gives a salt, the structure may show the parent alone. Where a SMILES comes first, the peptide text is derived from it. The star is where a group is joined. Cbz = O=C(OCc1ccccc1)*

The values that follow come from patent US20250319110A1, “SURFACE CALR CHEMICAL INDUCERS” (THE CHILDREN'S MEDICAL CENTER CORPORATION, priority 2022, published 2025).

One assay deals with reactive oxygen species (ROS). The assay can be described thus: ROS production by CALR agonists (ROS+ / ROS− classification of screen hits). It counts as cell-based, human. Particulars: CALR agonists that do not stimulate ROS production or only to negligible levels. How it is done: To systematically evaluate pathways triggering surface CALR, a panel of 1200 bioactive small molecules in human cells were screened. Surface CALR expression was evaluated by imaging a CALR-antibody coupled with a fluorophore and by a SPLIT-TURBO ID construct targeting the association of […] (Cadherin 2), a membrane protein, and CALR. 93 out of 1200 compounds screened increased surface CALR with a robust dosage response. Chemical annotation further supported that ROS+ drugs were associated with FOXO1A and oxidative stress, while the ROS− drugs were associated with G protein-coupled receptor signaling and cellular calcium ion homeostasis. In vivo ROS− drugs induced macrophage-stem cell interaction and grooming behavior, while ROS+ drugs enhanced the macrophage-stem cell interaction, but not grooming. Collectively, the work described herein has identified ROS as a signal that upregulates surface CALR and promotes macrophage-stem cell interactions, safeguarding the development of stem cells that are stressed or damaged.
As described in the examples herein, some CALR agonists do stimulate reactive oxygen species (ROS) production; or stimulate ROS production to statistically significant levels. This group of CALR agonists are referred to herein as “ROS+ CALR agonists.” ROS+ CALR agonists include Ibudilast; zaprinast; FK-520; AG1478; bongkrekic acid; GW9508; fusidic acid; beta-lapachone; fusaric acid; fenspiride; zardaverine; docosahexaenoic acid, loxoprofen; AG1480; flufenamic acid; and MG-132.
This group of CALR agonists are referred to herein as “ROS− CALR agonists.” ROS-CALR agonists include DL-threo-1-Phenyl-2-palmitoylamino-3-morpholino-1-propanol; cambinol; ganciclovir; 8-bromo-GMP; arvanil; thiocitrulline; and isoguvacine. In some embodiments, an at least one ROS− CALR agonist can be selected from the group consisting of: DL-threo-1-Phenyl-2-palmitoylamino-3-morpholino-1-propanol; ganciclovir; 8-bromo-GMP; arvanil; thiocitrulline; and isoguvacine.
A chemical screen was conducted to identify surface CALR inducers in a ROS-associated and a ROS-independent manner (FIG. 4). Hits from the screen was validated in vivo as CALR inducers (FIGS. 5A-5B). ROS− drugs tended to induce macrophage-stem cell interaction and proliferation. ROS+ drugs tended to promote dooming (FIGS. 6A-6C).
As for `CCCCCCCCCCCCCCCC(=O)N[C@H](CN1CCOCC1)[C@H](O)c1ccccc1` (racemic) [DL-threo-1-Phenyl-2-palmitoylamino-3-morpholino-1-propanol], the “ROS production class of CALR agonist” value was “ROS−”.

Turning to `Nc1nc2c(nc(Br)n2[C@@H]2O[C@H](COP(=O)(O)O)[C@@H](O)[C@H]2O)c(=O)[nH]1` [8-bromo-GMP, 8-bromo-guanosine monophosphate], the “ROS production class of CALR agonist” value is on record as “ROS−”.

In the case of `CCCCC/C=C\C/C=C\C/C=C\C/C=C\CCCC(=O)NCc1ccc(O)c(OC)c1` [arvanil, N-vanillylarachidonamide], the “ROS production class of CALR agonist” value is “ROS−”.

In the case of `O=c1[nH]c(=S)[nH]c(-c2ccccc2)c1Cc1c(O)ccc2ccccc12` [cambinol, 5-[(2-hydroxynaphthalen-1-yl)methyl]-6-phenyl-2-sulfanylidene-1H-pyrimidin-4-one], the “ROS production class of CALR agonist” value is recorded as “ROS−”.

In the case of `Nc1nc(O)c2ncn(COC(CO)CO)c2n1` [ganciclovir, 2-Nor-2′-deoxyguanosine], the “ROS production class of CALR agonist” value is “ROS−”.

`O=C(O)C1=CCNCC1` [isoguvacine, 1,2,3,6-tetrahydropyridine-4-carboxylic acid]: the “ROS production class of CALR agonist” value is listed as “ROS−”.

In the case of `CSC(=N)NCCC[C@H](N)C(=O)O.Cl.Cl` [thiocitrulline, N^5-[imino(methylthio)methyl]-L-ornithine, dihydrochloride], the “ROS production class of CALR agonist” value is recorded as “ROS−”.

The assay is the same for the next values; noted with them: CALR agonists that stimulate ROS production.
Consider `CC(C(=O)O)c1ccc(CC2CCCC2=O)cc1` (racemic) [loxoprofen, (RS)-2-{4-[(2-oxocyclopentyl)methyl]phenyl}propanoic acid], for which the “ROS production class of CALR agonist” value is given as “ROS+”.

Turning to `COc1cc2ncnc(Nc3cccc(Cl)c3)c2cc1OC` [AG1478, N-(3-chlorophenyl)-6,7-dimethoxyquinazolin-4-amine], the “ROS production class of CALR agonist” value was “ROS+”.

On to `CC[C@@H]1/C=C(\C)C[C@H](C)C[C@H](OC)[C@H]2O[C@@](O)(C(=O)C(=O)N3CCCC[C@H]3C(=O)O[C@H](/C(C)=C/[C@@H]3CC[C@@H](O)[C@H](OC)C3)[C@H](C)[C@@H](O)CC1=O)[C@H](C)C[C@@H]2OC` [FK-520, ascomycin], for which the “ROS production class of CALR agonist” value is recorded as “ROS+”.

For the compound `O=C(O)CCc1ccc(NCc2cccc(Oc3ccccc3)c2)cc1` [GW9508, 4-[[(3-phenoxyphenyl)methyl]amino]-benzenepropanoic acid], the “ROS production class of CALR agonist” value was “ROS+”.

For `CC(C)C(=O)c1c(C(C)C)nn2ccccc12` [Ibudilast, 2-methyl-1-(2-propan-2-ylpyrazolo[1,5-a]pyridin-3-yl)propan-1-one], the “ROS production class of CALR agonist” value is recorded as “ROS+”.

`CC(C)C[C@@H](C=O)NC(=O)[C@H](CC(C)C)NC(=O)[C@H](CC(C)C)NC(=O)OCc1ccccc1` [MG-132, benzyl N-[(2S)-4-methyl-1-[[(2S)-4-methyl-1-[[(2S)-4-methyl-1-oxopentan-2-yl]aamino]-1-oxopentan-2-yl]amino]-1-oxopentan-2-yl]carbamate] (Cbz-Leu-Leu-Leu-aldehyde): the “ROS production class of CALR agonist” value was “ROS+”.

As for `CC1(C)CCC2=C(O1)c1ccccc1C(=O)C2=O` [beta-lapachone, 2,2-dimethyl-3,4-dihydrobenzo[h]chromene-5,6-dione], the “ROS production class of CALR agonist” value is reported as “ROS+”.

Regarding `CO[C@H](C/C=C\C=C\CC/C=C/C[C@H](C)/C=C/C(=C\C(=O)O)CC(=O)O)/C(C)=C\C=C(/C)C(=O)O` [bongkrekic acid, (2E,4Z,6R,8Z,10E,14E,17S,18E,20Z)-20-(carboxymethyl)-6-methoxy-2,5,17-trimethyldocosa-2,4,8,10,14,18,20-heptaenedioic acid], the “ROS production class of CALR agonist” value is recorded as “ROS+”.

Take `CC/C=C\C/C=C\C/C=C\C/C=C\C/C=C\C/C=C\CCC(=O)O` [docosahexaenoic acid]: the “ROS production class of CALR agonist” value is given as “ROS+”.

Turning to `O=C1NCC2(CCN(CCc3ccccc3)CC2)O1` [fenspiride, 8-(2-phenylethy)-1-oxa-3,8-diazaspiro[4.5]decan-2-one, monohydrochloride], the “ROS production class of CALR agonist” value is “ROS+”.

Turning to `O=C(O)c1ccccc1Nc1cccc(C(F)(F)F)c1` [flufenamic acid, 2-[3-(trifluoromethyl)anilino]benzoic acid], the “ROS production class of CALR agonist” value is given as “ROS+”.

For `CCCCc1ccc(C(=O)O)nc1` [fusaric acid], the “ROS production class of CALR agonist” value was “ROS+”.

As to `CC(=O)O[C@H]1C[C@@]2(C)[C@@H](C[C@@H](O)[C@H]3[C@@]4(C)CC[C@@H](O)[C@@H](C)[C@@H]4CC[C@@]32C)/C1=C(\CCC=C(C)C)C(=O)O` [fusidic acid], the “ROS production class of CALR agonist” value is recorded as “ROS+”.

Regarding `CCCOc1ccccc1-c1nc2n[nH]nc2c(=O)[nH]1` [zaprinast, 5-(2-propoxyphenyl)-2,6-dihydrotriazolo[4,5-d]pyrimidin-7-one], the “ROS production class of CALR agonist” value was “ROS+”.

Take `COc1cc(-c2ccc(=O)[nH]n2)ccc1OC(F)F` [zardaverine, 6-[4-(difluoromethoxy)-3-methoxyphenyl]-3(2H)-pyridazinone]: the “ROS production class of CALR agonist” value was “ROS+”.
